The text below walks through data of patent publication US6096784A, “Inhibitors of oleamide hydrolase” (The Scripps Research Institute, priority 1999, dated 2000).

Data set [1] addresses T1, oleamide hydrolase (Rattus norvegicus, UniProt P97612).
T1 construct: The enzyme was used as a crude, heterogenous, membrane-containing preparation from rat liver; from tissue; host or cells: rat liver plasma membrane preparation (12-14 rat livers), crude
T1 sequence (P97612 1-579): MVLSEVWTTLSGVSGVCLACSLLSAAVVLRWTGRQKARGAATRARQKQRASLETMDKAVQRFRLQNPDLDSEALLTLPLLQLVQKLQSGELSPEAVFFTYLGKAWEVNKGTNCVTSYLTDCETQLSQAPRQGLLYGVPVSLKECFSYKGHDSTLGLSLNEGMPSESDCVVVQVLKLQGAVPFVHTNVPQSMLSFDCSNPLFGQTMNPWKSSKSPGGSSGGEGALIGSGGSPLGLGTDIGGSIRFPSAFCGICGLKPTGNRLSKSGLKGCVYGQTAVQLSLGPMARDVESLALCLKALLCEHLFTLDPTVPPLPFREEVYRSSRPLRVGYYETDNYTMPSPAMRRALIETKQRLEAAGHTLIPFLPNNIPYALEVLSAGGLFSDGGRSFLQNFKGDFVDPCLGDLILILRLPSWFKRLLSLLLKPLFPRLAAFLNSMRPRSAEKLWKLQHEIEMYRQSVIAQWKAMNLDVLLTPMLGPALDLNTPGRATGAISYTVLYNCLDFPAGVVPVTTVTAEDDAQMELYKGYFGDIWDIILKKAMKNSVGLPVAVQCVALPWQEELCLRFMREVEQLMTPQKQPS
Description: Oleamide hydrolase inhibition, ammonia production measured with ion-selective electrode. The format is biochemical.
Description: Error values presented with Ki s should be considered goodness-of-fit estimates derived from propagation of errors treatment of data. They are not necessarily an indication of reproducibility.
Twelve to fourteen rat livers were sectioned and placed in 300 mL of 1 mM NaHCO3. The solution of diced liver was strained and washed with additional 300 mL of 1 mM NaHCO3. Any conspicuous connective tissue was removed. The liver was transferred to a fresh 800 mL of 1 mM NaHCO3, stirred and then transferred in 400 mL aliquots to a blender. Blended liver aliquots were combined and filtered through 8 layers of cheesecloth. This was diluted to 1.0 L with 1 μM NaHCO3 and centrifuged at 6000 rpm for 20 minutes at 40° C. (Beckman JA-17 rotor). The supernatant was decanted, the pellets resuspended in 1 mM NaHCO3, combined and dounce homogenized. Centrifugation, decantation and resuspension/homogenization were repeated to give a final volume of approximately 90 mL. The homogenate was added to 2 volume equivalents of 67% sucrose, mixed thoroughly, and transferred to ultracentrifuge compatible tubes. The tubes were topped with 30% sucrose and spun at 27,000 for 2 hours (SW-28 rotor). The middle yellow band was removed from the sucrose gradient, combined, resuspended in 1 mM NaHCO3, and dounce homogenized. The sample was further centrifuged at 17,000 rpm for 45 minutes at 4° C. (JA-17 rotor). The supernatant was removed, the pellets resuspended in 100 mM Na2 CO3, dounce homogenized and left on ice for 30 minutes. The solution was centrifuged at 27,000 rpm for 1 hour (SW-28 rotor), the supernatant was decanted and the pellet resuspended in 15 mL of 50 mM Tris HCl, pH 7.4 with 1 mM EDTA, and homogenized with a dounce homogenizer. This material was divided into multiple aliquots and frozen at -78° C. until use. Each enzyme sample was frozen once only.

Data set [2] has as its target T1, oleamide hydrolase. Put plainly: Determination of Km for oleamide (Lineweaver-Burke plot). Type of data set: biochemical. The protocol: The potency of the inhibitors was determined using an ion selective electrode to measure the production of ammonia as the result of the hydrolysis of 100 μM oleamide (~20 Km) by a membrane bound preparation of oleamide hydrolase. […] Inhibition constants were determined by the Dixon method (FIGS. 4-6).
The enzyme was used as a crude, heterogenous, membrane-containing preparation from rat liver. […] Within solubility limits, all inhibitors achieved 100% inhibition of activity at concentrations of greater than 100 Ki. No detectable activity was found in the absence of added oleamide.
The Km for oleamide was determined as the average Km obtained from four independent assays. Each independent Km was obtained from weighted linear fit of data in a Lineweaver-Burke plot. A fifth concurring Km was obtained as a result of the determination of oleic acid inhibition by non-linear methods. The rate data was fit with the standard Michaelis-Menten kinetic equation.

In data set [3] the target is T1, oleamide hydrolase. Put plainly: pH-rate dependence of oleamide hydrolase cleavage of oleamide. Type of data set: biochemical. The note with it: cleavage of compound 1. The protocol:
FIG. 12 illustrates the equations used to determine the pH-Rate dependence. The rate was obtained from the linear portion of the curve which was fit using a standard least squares procedure. These rates were replotted against pH and fit with the shown equation by a weighted non-linear least-squares method.
Crude enzyme was added to a solution of 200 μM oleamide (approximately the solubility limit) 1 in 20 mL buffer at the appropriate pH, containing 5% DMSO. (Concentrations of up to 20% DMSO had only minimal effect on enzyme rates.) A 50 mM sodium citrate/Bis-tris buffer was used for data points in the pH 4-9 range. A 50 mM Bis-tris/CAPS was used for data points in the 8-11 range. At pH 12, the solution was assumed to be self-buffering. At periodic time intervals, 1 mL aliquots were removed and diluted with 9 mL pH 14 buffer. Ammonia concentrations were measured with an ion-selective ammonia electrode (Orion) connected to a 720 A meter (Orion), calibrated against known standards. The rate was obtained from the linear portion of the curve which was fit using a standard least-squares procedure. […]

The nature of data set [4]: Solubility of oleamide in assay buffer. The format is physicochemical. The note with it: buffer with 5% dmso, organic solvent or mixture; buffer containing 5% DMSO; read-out: solubility limit.
Data set [5] is described as follows: Ammonia production from oleamide in the absence of enzyme. Type of data set: physicochemical. To be noted: 100 μM oleamide, pH 10.0. The protocol:
The potency of the these compounds against oleamide hydrolysis was evaluated using an ion-selective ammonia electrode (ATI/Orion) to directly measure ammonia formation as the product of the reaction. All Ki s except for that of oleic acid were determined by the Dixon method. (X intercepts of weighted linear fits of [I] versus 1/Rate plots at a constant substrate concentration were converted to Ki 's using the formula Ki =-Xint /[1+[S]/Km ].) The oleic acid Ki was obtained from a non-linear weighted least-squares fit of rate versus substrate and inhibitor concentrations. The assays were done with constant stirring in 10 mL 50 mM CAPS buffer (Sigma) adjusted to pH 10.0, the pH at which the rate of enzymatically catalyzed oleamide hydrolysis is maximal. In all cases which involved Dixon analysis, the substrate concentration was 100 μM. The oleic acid Ki was determined over a range of substrate concentrations from 10 to 100 μM. Substrate and inhibitors were dissolved in DMSO prior to addition to the 50 mM CAPS buffer, generating a final DMSO assay concentration of 1.67%. […] The enzyme concentration was adjusted to produce a rate of roughly 0.2 μM/min in the absence of inhibitor and the rate of ammonia production observed over a period of 7 to 10 minutes.
The enzyme was used as a crude, heterogenous, membrane-containing preparation from rat liver. […]

The subject of the next data set is animals. To be noted: cited from earlier work; for somnolescent activity: in vivo.
Data set [6] in a line: Extent of hydration / hemiacetal formation of inhibitor carbonyl by 1H and 13C NMR. Type of data set: physicochemical. To be noted: for conversion to hemiacetal: CD3OD, NMR. From the text:
FIG. 2 illustrates ^1 H NMR and ^13 C NMR data to establish and quantitate the addition of CD3 OD or D2 O to the electrophilic carbonyl in CD3 OD or acetone-d6. […] Expected trends follow 11>12>8>6≥4.

The subject of the next data set is rat. Description: Sleep monitoring in rat after intra-abdominal injection, electrophysiological methods. The format is in vivo. The note with it: intraperitoneal, mineral oil, four hours. The procedure: Another aspect of the invention is directed to a method for inducing sleep within an oleamide sensitive animal by administrating an effective dose of an […] of oleamide hydrolase. A preferred […] is compound 6. Compound 6 was dissolved in mineral oil and an effective dose was injected into the peritoneum of a rat by intra-abdominal injection. Sleep was monitored for the following four hours. Total sleep time was determined by standard electrophysiological methods. An increase of deep slow-wave sleep (SWS) with a reduction of the waking period was observed.

The mark [7] stands for this setting: pH 10.0, 100 μM oleamide, Dixon method, read-out: Ki.
Setting [8] is: pH 10.0, 100 μM oleamide, Dixon method, read-out: inhibition constant (Ki,app).

≈ marks a conversion by molar mass, not a printed value. Where two headings read alike, the source gives them in different places.

Turning to `c1cc(SSc2ccncc2)ccn1` [4,4'-dithiodipyridine disulfide, reference compound], on oleamide hydrolase [1], the “inhibition of oleamide hydrolase (in words)” value (“inhibition … (in words)” below) is reported as “can be inhibited”. Usually Km stands for the concentration of substrate that gives half-maximal velocity. Usually solubility stands for how much of the substance goes into solution per volume. As for `CCCCCCCC/C=C\CCCCCCCC(N)=O` [Compound 1, cis-9-octadecenamide], the “dependence of reaction rate on substrate concentration” value on oleamide hydrolase [2] (30-100 μM) is given as “essentially a zero order dependence on substrate concentration”. The Km at oleamide hydrolase [2] (average of four independent assays) came to 5 ± 2 µM. The “pH of rate maximum” value at oleamide hydrolase [3] is listed as 10.0. In data set [4], the solubility was about 200 µM (≈ 56.3 µg/mL). The “rate of ammonia production in the absence of enzyme” value in data set [5] is on record as “only a very minimal rate of ammonia production”. Further, the “quantity inducing physiological sleep” value with animals (injected intravascularly) is listed as “nanomolar quantities”.

In the case of `CCCCCCCC/C=C\CCCCCCCC(=O)CCl` [Compound 3, 1-Chloro-10Z-nonadecen-2-one], the “time dependence of inhibitory activity” value at oleamide hydrolase [1] (first fifteen minutes of incubation, up to solubility limits) is on record as “time independent but moderate inhibition”. For the same compound, the Ki at oleamide hydrolase [1] (setting [7]) stood at 700 nM.

`CCCCCCCC/C=C\CCCCCCCC=O` [Compound 4]: the conversion to hemiacetal in data set [6] came to 47%.

`CCCCCCCC/C=C\CCCCCCC=O` [Compound 5, 8Z-Heptadecenal]: the “relative binding, C-2 versus C-1 position of electrophilic carbonyl (aldehydes)” value at oleamide hydrolase [1] (5 versus 4) is on record as “five times more tightly than 4”. Take `CCCCCCCC/C=C\CCCCCCC(=O)C(N)=O` [Compound 6, 2-Oxo-9Z-octadecenamide]: in data set [6], the conversion to hemiacetal stood at 48%. Besides, in the data set on rat, the “increase of deep slow-wave sleep (SWS)” value is recorded as “approximately 30%” and the reduction of waking entry is “a similar percent of reduction of waking”. With `CCCCCCCC/C=C\CCCCCCCC(=O)C(N)=O` [Compound 7, 2-Oxo-10Z-nonadecenamide], the “relative binding (in words)” value on oleamide hydrolase [1] (comparison between inhibitors) is recorded as “binds more tightly”.

Take `CCCCCCCC/C=C\CCCCCCC(=O)C(=O)OCC` [Compound 8, Ethyl 2-Oxo-9Z-octadecenoate]: the “increase in binding affinity, C-2 versus C-1 position of electrophilic carbonyl (α-keto esters)” value at oleamide hydrolase [1] (8 versus 9) worked out at 6 fold. Further, the “relative binding (in words)” value on oleamide hydrolase [1] (comparison between inhibitors) is “bind equally tightly”. At oleamide hydrolase [1] (setting [8]), the Ki amounted to 1.4 nM. The compound further registered a conversion to hemiacetal in data set [6] of 75%. For `CCCCCCCCCCCCCCCC(=O)C(O)(O)C(=O)OC(C)(C)C` [Compound 11, tert-Butyl 3-Oxo-2,2-dihydroxyoctadecanoate], on oleamide hydrolase [1] (setting [8]), the Ki was 150 nM. In addition, in data set [6], the “hydration of carbonyl (in words)” value is given as “fully hydrated” and the conversion to hemiacetal was determined as 100%.

Regarding `CCCCCCCC/C=C\CCCCCCCC(=O)C(F)(F)F` [Compound 12, 1,1,1-Trifluoro-10Z-nonadecen-2-one], at oleamide hydrolase [1], the Ki was determined as 1.2 nM, the “preference for cis double bond at 9 position” value is “approximately an order of magnitude more tightly than the trans double bond containing 14 or the saturated derivative 15”, the “relative binding (in words)” value is listed as “bind equally tightly” and the “type of inhibition (Lineweaver-Burke plot)” value is “competitive”. In data set [6], the “hydration of carbonyl (in words)” value is recorded as “almost entirely as hydrates” and the conversion to hemiacetal came out at 100%. Take `CCCCCCCC/C=C\CCCCCCC(=O)C(F)(F)F` [Compound 13, 1,1,1-Trifluoro-9Z-octadecen-2-one]: the “hydration of carbonyl (in words)” value in data set [6] is listed as “almost entirely as hydrates”.

With `CCCCCCCC/C=C/CCCCCCCC(=O)C(F)(F)F` [Compound 14, 1,1,1-Trifluoro-10E-nonadecen-2-one], the “hydration of carbonyl (in words)” value in data set [6] is on record as “almost entirely as hydrates”. On the same count and under the same terms, under `CCCCCCCCCCCCCCCCCC(=O)C(F)(F)F` [Compound 15] stands “almost entirely as hydrates”.

In the case of `CCCCCCCC/C=C\CCCCCCCC(OC)OC` [Compound 16], the “inhibition … (in words)” value at oleamide hydrolase [1] is given as “poor inhibition”.

In the case of `CCCCCCCC/C=C\CCCCCCC(O)C(N)=O` (stereo not drawn) [Compound 17, 2-Hydroxy-9Z-octadecenamide], the “inhibition … (in words)” value against oleamide hydrolase [1] is listed as “poor inhibition”. Still for that read-out and setting: the result for `CCCCCCCC/C=C\CCCCCCC(O)C(=O)O` (stereo not drawn) [Compound 18] reads “poor inhibition”. For `CCCCCCCC/C=C\CCCCCCC(Cl)C(=O)O` (stereo not drawn) [Compound 20, 2-Chlorcoleic acid], the “mode of binding (in words)” value on oleamide hydrolase [1] is recorded as “appeared to bind reversibly”. Also, the Ki on oleamide hydrolase [1] (setting [7]) was found to be 300 nM. As to `CCCCCCCC/C=C\CCCCCCCC(=O)C=[N+]=[N-]` [Compound 21, 1-Diazo-10Z-nonadecen-2-one], the Ki at oleamide hydrolase [1] (setting [7]) was determined as 18000 nM. Turning to `O=C(O)CN(CCN(CC(=O)O)CC(=O)O)CC(=O)O` [EDTA, reference compound], at oleamide hydrolase [1], the “inhibition … (in words)” value is given as “not by 1 mM EDTA”. As usually defined, the IC50 is the concentration that gives 50% inhibition. Consider `[Cl][Hg][Cl]` [HgCl2, reference compound], for which, on oleamide hydrolase [1], the “inhibition … (in words)” value is reported as “can be inhibited”. This compound displayed an IC50 against oleamide hydrolase [1] (HgCl2) of 700 nM. Further, the Ki on oleamide hydrolase [1] (HgCl2, read-out: Ki, app) is 37 nM. Regarding `N` [ammonia], the somnolescent activity entry with animals is on record as “neither of which demonstrate somnolescent activity”.

`CCCCCCCC/C=C\CCCCCCCC(=O)O` [oleic acid, cis-9-octadecenoic acid, reference compound]: the Ki at oleamide hydrolase [1] (pH 10.0, non-linear weighted least-squares fit, 10 to 100 μM oleamide, read-out: Ki) came to 6000 nM. Also, the somnolescent activity result in the data set on animals is given as “neither of which demonstrate somnolescent activity”. Take `O=S(=O)(F)Cc1ccccc1` [phenylmethylsulfonyl fluoride, reference compound]: the “inhibition … (in words)” value against oleamide hydrolase [1] is “can be inhibited”.
